Each block holds one compound with its values, some of them ahead of it.
How the values were obtained:
[1] = direct pH measurement of aqueous peptide salt solutions; assay type: physicochemical; details: before exchange (TFA salt), about 2–2.4 mg/mL peptide salt
From the text: Direct pH measurements of aqueous solutions of peptides present as TFA, as well as Cl salts, were acidic in a pH range below 3 (exact values can be found in the Supporting Information). […] Strong counterions as Cl^− and TFA^− may shield the positive charges and hydrogen bond donors, facilitating permeation as a net neutral complex. The complex then dissociates in the unbuffered internal liposomal phase, into a weak base (peptide) and a strong acid (HCl or TFA), resulting in the release of protons leading to acidification and a decrease in fluorescence. This assumption would align with the concept of hydrophobic ion pairing, described to enhance the membrane permeability of charged molecules in drug delivery. Our findings confirm results of previous studies that counterions cannot be neglected and the salt form might affect the membrane permeation behavior of peptides, among other things. Given that counterions are often unreported in the literature, we herein emphasize the need for explicit consideration and clarification in peptide-based permeation assays and further functional studies.
Table S8: pH measurements of AT1-4 peptide salt in aq. solution after exchange and lyophilization
Before Conc. peptide 2.38 2.38

[2] = counterion (TFA−, Cl−, Na+) content of peptide salt by HPLC-ELSD during HCl exchange; assay type: physicochemical
Method: The TFA^− content in samples was quantified using three analytical methods, namely FT-IR, ^19F-NMR, and HPLC-ELSD, adapted from previous publications. The methods are described in detail in the Supplementary Materials Section S2. In short, FT-IR spectra were recorded in aqueous solution at a wavelength from 4000 cm^−1 to 600 cm^−1 (PerkinElmer Inc., Waltham, MA, USA). The absorbance maxima in the TFA^− absorbance range of 1210 to 1190 cm^−1 were determined using Python (3.10.10, https://docs.python.org/3/reference (accessed 22 April 2024)). The ^19F-NMR (Bruker Avance III 400 MHz NMR spectrometer, Bremen, Germany) measurements were performed in 10% deuterium oxide (D2O; >99.9 atom% D, Apollo Scientific, Bredbury, United Kingdom) in H2O (nanopure water, in-house water purification system ELGA Purelab, Villmergen, Switzerland) and the signal areas were determined via auto-integration. The HPLC-ELSD (VWR ELITE Lachrome Series, Dietikon, Switzerland) method was used under isocratic conditions with a mobile phase consisting of 40% 20 mM ammonium formate (≥99%, Sigma Aldrich, Buchs, Switzerland) in H2O (pH 4.0) and 60% acetonitrile (ACN; HPLC gradient grade, ≥99.9%, Sigma Aldrich, Buchs, Switzerland). Separation was achieved on an Acclaim Trinity P1 column (3 mm × 100 mm, Thermo Fisher Scientific, Sunnyvale, CA, USA) allowing for the simultaneous detection of TFA^−, Cl^−, and Na^+. Retention times were determined by single injection of analytes and quantification performed via peak area. All analytical methods were validated according to the ICH guidelines. For each analysis method, calibrators with concentrations in the corresponding quantitative range for TFA^− (additionally, Na^+ and Cl^− for HPLC-ELSD) were prepared and aliquoted for each validation day (4 days for FT-IR and ^19F-NMR, 8 days for HPLC-ELSD). Quality control (QC) samples (QC low, med, and high) were prepared independently. All aliquots were stored at 5 °C. Over a period of 7 (FT-IR and ^19F-NMR) or 21 days (HPLC-ELSD), daily regression curves were determined using the generalized least squares regression model. For the ^19F-NMR and FT-IR method, a linear model was used, and for the HPLC-ELSD method a polynomial model. Weightings of x, 1/x, and 1/x^2 were considered for the calibration curves. The accuracy was determined by comparing the established concentration of the QC sample concentration and the theoretical concentration. Bias and intra- and inter-day precision (RSDR and RSDT) were calculated according to Peters et al.. […] The limit of detection (LoD) and limit of quantification (LoQ) for the FT-IR and ^19F-NMR methods were calculated according following ICH guidelines based on the standard deviation of the response and slope. As a quadratic regression curve was determined for the HPLC-ELSD method, LoD and LoQ were determined using the signal-to-noise approach. To assess the stability of the calibration curve, the concentration of the QCs for each day was recalculated with the calibration curve established on the first day and the bias was determined by comparison with the theoretical value calculated.
For the counterion exchange of TFA^− with Cl^−, the peptide salt was dissolved in a diluted aqueous HCl solution at a concentration of 1 mg/ml. […] To evaluate the influence of the peptide sequence, counterion exchange was also performed for AT 2, AT 3, and AT 4 with the optimally determined salt concentration of 10 mM. […]

[3] = peptide integrity during counterion exchange with aq. HCl, HPLC-UV; assay type: physicochemical
Method: As degradation issues in aqueous acidic solutions have been reported previously, the integrity of AT 1 during counterion exchange with the different concentrations of HCl was measured with HPLC-UV. […] Similar results could be found for all other peptides under investigation (Supplementary Materials Section S3). […] Nevertheless, the stability of the peptide as well as the counterion exchange efficacy may vary, depending on the peptide sequence. Therefore, the TFA^− content as well as the purity should always be confirmed after counterion exchange.
For the counterion exchange of TFA^− with Cl^−, the peptide salt was dissolved in a diluted aqueous HCl solution at a concentration of 1 mg/ml. […] To evaluate the influence of the peptide sequence, counterion exchange was also performed for AT 2, AT 3, and AT 4 with the optimally determined salt concentration of 10 mM. […] For all peptide samples, the content of counterions was measured by FT-IR, ^19F-NMR, and HPLC-ELSD before the exchange as well as after each lyophilization cycle (Ex 0, Ex 1, Ex 2, and Ex 3). […] HPLC-ELSD samples containing 0.75 mg/mL peptide salt in H2O were measured in triplicate with an injection volume of 5 and 20 µL. The purity of the samples was monitored during the counterion exchange with a 0.25 mg/mL peptide salt solution according to the purity method described below. […]

[4] = liposomal fluorescence assay (HPTS) for passive membrane permeation
Method: (§1) To investigate the influence of TFA^− and Cl^− as counterions on the membrane permeation of synthetic peptides, a liposomal fluorescence assay was performed as previously described [37, 38]. The assay relies on the change in fluorescence of HPTS correlating to the liposomal internal pH change altered by permeation of an acidic or basic compound across the phospholipid bilayer. […] We first evaluated the impact of counterions on the permeation kinetics of the CPPs. Fitted biexponential curves and calculated log Permapp values are shown if the obtained normalized RMSE was <0.10. […] Control experiments with TFA and HCl are also shown for reference. […] To complement the CPP study, we also investigated peptides AT 1–4 in the permeation assay.
(§2) To investigate the influence of the counterions on the membrane permeability of peptides, a liposomal fluorescence assay was performed using a previously described method adapted to a plate reader [37, 38].

[5] = cited from earlier work
[6] = at the concentrations used in the liposomal assay; cited from earlier work
[7] = not told
Method: as §1, §2

Compound: H2N-DRVYIHPF-COOH (H-DRVYIHPF-OH) [AT 2, angiotensin peptide synthesized by SPPS]
pH of peptide salt in aq. solution [1]: 2.63

Compound: H2N-DRVYIHPFHL-COOH (H-DRVYIHPFHL-OH) [AT 1, angiotensin model peptide synthesized by SPPS]
pH of peptide salt in aq. solution [1]: 2.59
Cl− content relative to expected value based on stoichiometric exchange ([2]; 10 mM HCl, single cycle): 99.0%
TFA− content of peptide salt ([2]; after one exchange cycle with 10 and 100 mM HCl, below LoQ of all techniques): below 1 % (w/w)
TFA− content of peptide salt ([2]; after purification, before exchange, HPLC-ELSD): 0.333 ± 0.008 mg TFA^− per mg peptide salt
TFA− content of peptide salt ([2]; control 0 mM HCl, after three exchange cycles): 0.215 ± 0.023 mg TFA^− per mg peptide salt
Cl− content of peptide salt ([2]; exchanged with 10 mM HCl, after a single cycle): 0.098 mg per 1 mg peptide salt
degradation products during counterion exchange ([3]; HCl up to 100 mM): No degradation products were observed
purity during counterion exchange (stability in aq. HCl) ([3]; all HCl concentrations (0–100 mM), over three exchange cycles): above 96%

Compound: H2N-RVYIHPF-COOH [AT 3]
pH of peptide salt in aq. solution [1]: 2.63

Compound: H-KETWWETWWTEWSQPKKKRKV-OH [Pep1]
influence of type of counterion on passive permeation [7]: influence the amplitude of the permeation curve, although the overall log Permapp remained similar
permeation kinetics / fluorescence change (qualitative) [7]: biexponential kinetics were observed

Continued, in another order:

pH of peptide salt in aq. solution [1]: 2.39
Compound: H2N-VYIHPF-COOH [AT 4]

passive membrane permeation (qualitative) ([4]; Cl salt): did not detect permeation
passive membrane permeation (qualitative) ([4]; TFA salt): showed passive permeation
Log Permapp ([4]; TFA salt, 50 µM peptide solution added to liposomes, outer phase pH 6.0, 28.5 °C, ± standard error of the fit, n = 3): -6.913 ± 0.048 cm/s
Compound: H-LLIILRRRIRKQAHAHSK-OH [pVEC, H2N-LLIILRRRIRKQAHAHSK-COOH]
hemolytic activity [5]: general hemolytic activity is described
POPC membrane disruption [6]: no POPC membrane disruption was observed

influence of type of counterion on passive permeation [7]: unaffected by the type of counterion
permeation kinetics / fluorescence change (qualitative) [7]: biexponential kinetics were observed
Compound: CC[C@H](C)[C@H](NC(=O)[C@H](CCCCN)NC(=O)[C@@H](NC(=O)[C@H](CCC(N)=O)NC(=O)[C@@H](N)CCCNC(=N)N)[C@@H](C)CC)C(=O)N[C@@H](Cc1c[nH]c2ccccc12)C(=O)N[C@@H](Cc1ccccc1)C(=O)N[C@@H](CCC(N)=O)C(=O)N[C@@H](CC(N)=O)C(=O)N[C@@H](CCCNC(=N)N)C(=O)N[C@@H](CCCNC(=N)N)C(=O)N[C@@H](CCSC)C(=O)N[C@@H](CCCCN)C(=O)N[C@@H](Cc1c[nH]c2ccccc12)C(=O)N[C@@H](CCCCN)C(=O)N[C@@H](CCCCN)C(N)=O [AntP, H2N-RQIKIWFQNRRMKWKK-CONH2]

Reference: PMC12389442, “Towards a Consensus for the Analysis and Exchange of TFA as a Counterion in Synthetic Peptides and Its Influence on Membrane Permeation” (Pharmaceuticals, 2025)
